Laboratory results from article PMC8776730 (Nature Communications, 2022).

Biological target: T1, FAP-α (Homo sapiens, UniProt Q12884)
T1 construct: purchased R&D SYSTEM
T1 sequence (Q12884 1-760): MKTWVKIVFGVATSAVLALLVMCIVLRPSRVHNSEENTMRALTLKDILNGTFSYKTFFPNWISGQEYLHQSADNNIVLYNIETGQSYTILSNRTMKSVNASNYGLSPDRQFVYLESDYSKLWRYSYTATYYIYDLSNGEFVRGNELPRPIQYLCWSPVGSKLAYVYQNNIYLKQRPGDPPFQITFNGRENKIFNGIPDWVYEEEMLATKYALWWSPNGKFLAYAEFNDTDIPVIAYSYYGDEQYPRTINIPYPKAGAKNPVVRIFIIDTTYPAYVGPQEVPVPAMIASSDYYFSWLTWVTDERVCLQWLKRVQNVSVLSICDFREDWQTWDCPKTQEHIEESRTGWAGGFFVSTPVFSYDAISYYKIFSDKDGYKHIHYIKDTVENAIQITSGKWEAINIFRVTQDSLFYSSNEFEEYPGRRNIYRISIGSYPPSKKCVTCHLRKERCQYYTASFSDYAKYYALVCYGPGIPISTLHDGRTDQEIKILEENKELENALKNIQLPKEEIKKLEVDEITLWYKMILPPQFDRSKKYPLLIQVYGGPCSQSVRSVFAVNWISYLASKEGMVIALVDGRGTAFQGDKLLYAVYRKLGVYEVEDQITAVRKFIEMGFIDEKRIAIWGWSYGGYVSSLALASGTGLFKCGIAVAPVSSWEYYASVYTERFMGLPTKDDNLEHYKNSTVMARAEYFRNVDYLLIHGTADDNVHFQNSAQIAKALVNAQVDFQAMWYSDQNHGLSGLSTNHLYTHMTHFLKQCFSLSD
Assay: FAP-α tailoring (cleavage) followed by HPLC and MALDI-TOF
Assay type: biochemical
Conditions: 100 μM molecule, FAP-α 50 μM, 12 h; buffer 50 mM Tris, 1 M NaCl, 1 mg/mL BSA, pH 7.5; HPLC (M3, M5), MALDI-TOF (M1)
Excerpt: To further investigate the FAP-α specific tailoring and BIVA probe assembly in situ simultaneously (Fig. 4a), the high-performance liquid chromatography (HPLC), TEM, and matrix-assisted laser desorption/ionization time-of-flight (MALDI-TOF) mass spectrometry were applied for the characterizations purpose. To specify the cutting of the response tailoring motif (Gly-Pro-Ala), pre-synthesized molecules of R-M3, M3 and M5 were set as controls. […] Comparing the residues peaks with R-M3, the primary sharp peak at 27.4 min can be identified by the R-M3 control (27.6 min). […] The retention time of M1 after co-incubation with inactivated FAP-α was similar to that of M3 (Supplementary Fig. 14). After hydrolyzed by FAP-α, the residues of M1 in situ assembled into nanofibers structures under the complex buffer (Fig. 4c and Supplementary Fig. 15). […] In order to further evaluate the specificity of M1 for different enzymes, including FAP-α, pepsin, pancreatin, lipase, and BSA, we used ThT (Thioflavin T) as a detection probe (Fig. 4e).
Fig. 4 The FAP-α specific molecule tailoring and inducing in situ assembly. a The illustration the working mechanism of BIVA probe based on FAP-α catalytic hydrolysis. b HPLC curves of M3 and M5 after incubation with FAP-α in buffer. R-M3, M3 and M5 were synthesized controls. The TEM image (c), and the MALDI-TOF (d), results of M1 after tailoring by FAP-α in buffer, the red arrows represent the assembled fibrils of M1 after incubation with FAP-α. e The enzyme specificity of M1 in buffer. Buffer: 50 mM Tris, 1 M NaCl, 1 mg/mL, BSA, pH 7.5; Concentration of M1 and M3: 100 μM; Concentration of FAP-α: 50 μM; incubation time: 12 h. […]

Substance | tailoring (cleavage) by FAP-α
mPEG-GPAKLVFFGC(IR783)GRGD [M1] | cut into two parts of R-M1 and PEG residue
mPEG-GPAKLVFFGCGRGD [M3, the non-labeling molecule of M1 (no IR783)] | totally cleaved
